The subject of data set [1] is E. coli. Kind of data set: MIL-based extraction of viable E. coli, selective culture and colony enumeration. The conditions noted are these: for visible colonies after back-extraction with LB media and culture on selective agar: aqueous solutions of 1.68×10^5 CFUs mL^−1. The method, then:
For each cell extraction experiment, 2 mL of sterile LB media with 100 μg mL^−1 carbenicillin was inoculated with 0.5 μL of E. coli glycerol stock and incubated overnight at 37° C. and 225 rpm. The overnight culture was centrifuged at 2820 g for 8 min and the supernatant discarded. The cells were then vortexed for 15 s in 2 mL of deionized water and centrifuged once again at 2820 g for 8 min. Following a total of three washes, the cells were re-suspended in 1 mL of deionized water. The concentration of cells within the suspension was initially determined by measuring the optical density of the sample at 600 nm (OD600), where an OD600 equal to 1.000 represents 8×10^8 E. coli cells mL^−1. The bacterial suspension was diluted to an OD600 value of 0.021 (1.68×10^7 cells mL^−1), after which 10-fold serial dilutions were performed to yield the desired sample concentration. Since the sample concentrations were below the detection limit of the spectrophotometer, the final concentration of each sample (in CFUs mL^−1) was obtained using a plate counting method. Briefly, 15 μL of diluted cell suspension were mixed with 985 μL of LB media and vortexed for 3 min. A […] aliquot of the suspension was spread onto a selective LB agar plate with 100 μg mL^−1 carbenicillin and incubated overnight at 37° C. to obtain visible colonies.
(§1) A general schematic for the MIL-based cell extraction procedure is depicted in FIG. 10. In a 4 mL screw cap glass vial, a controlled volume (e.g., 10 μL) of MIL was added to 2 mL of diluted cell suspension and dispersed into microdroplets by vortex agitation for 15-120 s. Following the dispersive extraction, a 0.9 T magnetic field was applied to collect the cell-enriched MIL extraction phase. After the aqueous phase was decanted, the MIL was subjected to a static wash with 2 mL of deionized water to ensure that residual cell suspension was removed. The extracted E. coli was recovered from the MIL solvent by vortexing the MIL in 1 mL of LB media from 30 to 300 s. Following back-extraction, aliquots of the cell-enriched LB media were cultured on selective agar as well as analyzed by PCR.
To detect viable bacteria recovered from the MIL extraction solvent, a culture-based method selective for E. coli transformants was employed. Following MIL-based extraction, a 100 μL aliquot of the LB back-extraction solution was plated on LB agar containing 100 μg mL^−1 carbenicillin and incubated overnight at 37° C. Visible colonies were counted, tabulated, and compared to the colonies obtained for the sample prior to extraction. The enrichment factor (EF) from the MIL-based extraction was calculated by Equation 1, where CMIL is the concentration of CFUs within the MIL extraction phase and CS represents the concentration of CFUs in the bacterial suspension prior to extraction. EF=CMIL/CS Equation 1
To determine if MILs can extract viable E. coli cells, aqueous solutions of 1.68×10^5 CFUs mL^−1 were extracted with each of the seven MILs using an approach that is similar to one depicted in FIG. 10. […] [Co(hfacac)3^−] MILs with the greatest number of colonies obtained from the Ni(II)-based MIL extractions.

Data set [2] has as its system E. coli. The description is as above. To be noted: extraction time 30 s to 300 s.
The test system of data set [3] is E. coli. Kind of data set: PCR amplification of LB back-extraction solution after MIL-based extraction. How it is done:
as §1
Following the recovery of E. coli cells from the MIL extraction phase, an aliquot of the LB back-extraction solution was analyzed by PCR. […] The thermal protocol used for amplification of the MTAP gene was as follows: 5 min initial denaturation at 95° C. followed by 30 cycles of 30 s denaturation at 95° C., 45 s annealing at 54° C., and elongation for 45 s at 72° C.
After thermal cycling, the PCR products were mixed with 10 μL of bromophenol blue tracking dye solution (30% glycerol v/v) and loaded on a 1% agarose gel stained with SYBR Safe DNA gel stain. The PCR amplicon was subjected to electrophoresis at approximately 4 V cm^−1 and subsequently visualized using a transilluminator.
To improve detection limits, cells were recovered from the MIL phase using […] and a 1 μL aliquot of LB media was analyzed by PCR amplification. […] MILs as extraction media.
MIL. […] 1999; 37:2479-82). It should be noted that PCR assays are unable to distinguish between live and dead cells and, therefore, are complementary to microbiological culture for the determination of viable cells in a sample.

A short description of data set [4]: Viscosity, cone and plate viscometer. It counts as physicochemical. The conditions noted are these: 23.7° C. How it is done:
Proton NMR spectra (^1H) were recorded using a Bruker 500 MHz nuclear magnetic resonance spectrometer. Solvent peaks were used as reference values for the reporting of chemical shifts. Elemental analyses were obtained using a Perkin Elmer 2100 Series II CHN/S Analyzer (Waltham, Mass., USA). Mass spectra were obtained using an Agilent 6230 TOF LC/MS (Santa Clara, Calif., USA). Viscosity measurements were obtained using a Wells/Brookfield DV1 cone and plate viscometer using a CPA-51Z cone spindle. Each MIL was dried in a vacuum oven for 48 hours at 50° C. ensuring any water or residual solvents were completely removed from the MILs. Sample volumes of 0.5 mL were used for all MILs at a temperature (23.7° C.).

The next data set has as its system E. coli K12 cells. It counts as cell-based. How it is done: Since culture-based methods are contingent upon the isolation of viable bacteria, the detection of E. coli following MIL-based cell extraction is influenced by the cytotoxicity of MILs. To study the effect of MILs on the growth of E. coli, a 1 mL aliquot of LB media was inoculated with 8.0×10^2±0.5×10^2 CFUs mL^−1 and spiked with approximately 10 μL of a MIL. The mixture was agitated by vortex to simulate the recovery procedure after which a 100 μL aliquot of the suspension was plated on selective agar.

Data set [5] in a line: 1 second vial inversion (viscosity comparison). It counts as physicochemical. To be noted: 1 second inversion of each MIL.
Source text: FIG. 2 compares the viscosities of [P66614^+]2[MnCl4^2−], [P66614^+][Ni(hfacac)3^−], and [P66614^+][Nd(hfacac)4^−] by performing a 1 second inversion of each MIL.
A short description of data set [6]: Magnetic susceptibility, SQUID magnetometer. The data set is classed as physicochemical. The method, then: The μeff values for each exemplary MIL were determined using a Quantum Design MPMS SQUID magnetometer following procedures similar to those previously reported. (Y. Mudryk, P. Manfrinetti, V. Smetana, J. Liu, M. L. Fornasini, A. Provino, V. K. Pecharsky, G. J. Miller and K. A. Gschneidner, J. Alloys Compd, 2013, 557, 252-260).

The nature of data set [7]: Water solubility observation of intermediates and preliminary MILs (hydrophobicity testing). To be noted: color change in the aqueous solution two hours after addition of the MIL. It counts as physicochemical. The method, then: The [P66614^+][Cl^−] IL is commercially available.
(§2) Pairing of intermediate 1a to an imidazolium-based cation was carried out for preliminary viscosity and hydrophobicity testing. A metathesis reaction was performed between 1-(6-hydroxyhexyl)-3-methylimidazolium chloride [MC6OHIM^+][Cl^−] and intermediate 1a to form [MC6OHIM^+] [Co(hfacac)3^−]. […] Since the broad applicability of hydrophobic MILs is very much dependent upon the ease with which they can be transferred using traditional liquid handling methods, the [P66614^+] cation was selected for preparation of the hfacac-based MILs.

Data set [8] in a line: Pipette transfer at room temperature (preliminary viscosity testing). The conditions noted are these: neat MIL, without heating. The data set is classed as physicochemical. The method, then: as §2
Data set [9] deals with E. coli. Kind of data set: Direct PCR amplification of cell-enriched MIL phase. The conditions noted are these: 0.5 μL cell-enriched MIL phase directly in PCR mixture. How it is done:
Nucleic acid-based methods (e.g., PCR) have become increasingly popular for the detection of pathogens in food, environmental, and clinical samples to increase sample throughput and achieve lower detection limits. […] [Co(hfacac)3^−] MIL under optimized conditions. After extraction, 0.5 μL of the cell-enriched MIL phase was directly transferred into the PCR reagent mixture and heated at 95° C. for 5 min to induce cell lysis and the release of nucleic acids into solution. […] While the direct PCR detection modality provided a rapid assay for the detection of E. coli, the method was only suitable for the detection of relatively large quantities of cells (approximately 10^7 CFUs mL^−1) in aqueous samples likely due to inhibition caused by the MIL.

The nature of data set [10]: Solubility of MILs in organic solvents (solvent miscibility). It counts as physicochemical. The conditions noted are these: S with footnotes b-e: organic solvents and water, MIL to solvent ratio. An excerpt: Owing to their unique solvation capabilities and high thermal stability, ILs have been successfully employed in organic synthesis either as reaction media or catalysts. An evaluation of the hydrophobic MIL solubility in a wide range of organic solvents may provide a fundamental understanding into their solvent properties. This could be instrumental for designing MIL-based reaction media, where the MIL can be selectively separated from the reaction products using an external magnetic field. […] The transition-metal based […] fully miscible in all of the organic solvents except DMSO. […] However, as the polarity value of the solvent drops below 0.117, the transition-metal based MILs show decreased solubilities at a 10% (v/v) MIL to solvent ratio. […] The solubility of these MILs in many different organic solvents adds to their versatility and use in numerous applications.

For `CCCCCCCCCCCCCC[P+](CCCCCC)(CCCCCC)CCCCCC.O=C(C=C([O-])C(F)(F)F)C(F)(F)F.O=C(C=C([O-])C(F)(F)F)C(F)(F)F.O=C(C=C([O-])C(F)(F)F)C(F)(F)F.[Ni+2]` [MIL 3, [P66614^+] tris(hexafluoroacetylaceto)nickelate(II)], the “change in EF with SOC media as back-extraction solution” value in the data set on E. coli [1] (120 s back-extraction) is recorded as “no change in the EF was observed”. The “enrichment factor (EF)” value is on record as 15.4±0.8 in the data set on E. coli [1] (120 s back-extraction in LB media, 30 s extraction); 44.6±5.2 in the data set with E. coli [1] (MIL volume of 5 μL, cell suspension at 1.68×10^4 CFUs mL^−1); “approximately 15” in the data set on E. coli [2]. The “visible colonies after back-extraction with LB media and culture on selective agar” value in the data set with E. coli [1] is recorded as “visible colonies were observed”. Moreover, the “colonies with deionized water or 10 mM Tris-HCl (pH 8) as back-extraction solution” value with E. coli [1] (culture on selective agar) is reported as “no detectable colonies”. Also, the “lowest E. coli concentration detected in aqueous solution” value in the data set on E. coli [1] (optimized conditions, viable cells, culture on selective agar) is recorded as 1.68×10^4 CFUs mL^−1. The “amplicon after extraction of cell filtrate (cell-free DNA)” value with E. coli [3] is reported as “no amplicon was detected”. Besides, the “E. coli concentration at which bacterial pDNA was detected by PCR” value in the data set with E. coli [3] (cell recovery in LB media prior to PCR, 2 mL sample) is 1.68×10^4 CFUs mL^−1. Moreover, the viscosity in [4] is given as 927 cP. The “influence on the growth of E. coli” value in the data set on E. coli K12 cells (LB media with 8.0×10^2 CFUs mL^−1, approximately 10 μL of MIL, compared to unexposed standard) is “little to no influence on the growth of E. coli”. The “movement down the vial” value in data set [5] is recorded as “flow easily toward the bottom of the vial”. Further, the μeff in [6] (at lower temperatures) is 2.8 μB.

Consider `C[n+]1ccn(CCCCCCO)c1.O=C(C=C([O-])C(F)(F)F)C(F)(F)F.O=C(C=C([O-])C(F)(F)F)C(F)(F)F.O=C(C=C([O-])C(F)(F)F)C(F)(F)F.[Co+2]` [[MC6OHIM^+] [Co(hfacac)3^−]], for which the solubility in water entry in data set [7] is given as “soluble in water”. The “transfer with a pipette” value in data set [8] is “could not be transferred with a pipette”.

For the compound `CCCCCCCCCCCCCC[P+](CCCCCC)(CCCCCC)CCCCCC.O=C(C=C([O-])C(F)(F)F)C(F)(F)F.O=C(C=C([O-])C(F)(F)F)C(F)(F)F.O=C(C=C([O-])C(F)(F)F)C(F)(F)F.[Co+2]` [[P66614^+] [Co(hfacac)3^−]], the “visible colonies after back-extraction with LB media and culture on selective agar” value with E. coli [1] is reported as “visible colonies were observed”. Also, in the data set with E. coli [9], the “quantity of cells detectable by direct PCR” value is “approximately 10^7 CFUs mL^−1”.

For `CCCCCCCCCCCCCC[P+](CCCCCC)(CCCCCC)CCCCCC` [compound 1], the “Viable Bacteria” value in the data set on E. coli [1] (extraction of E. coli from aqueous samples, 1.68×10^5 CFUs mL^−1) was “No”. Besides, in data set [10], the Solubility result was “S^b,c,e”. Besides, the viscosity in data set [4] was determined as 575.8 cP. For the same compound, the “Cytotoxicity to E. coli” value in the data set with E. coli K12 cells is recorded as “Yes”. Also, in [6] (from magnetic susceptibility data, SQUID), the “μeff, effective magnetic moment” value amounted to 4.3 μB.

Usually viscosity stands for the internal friction of a fluid under shear. Low readings indicate a thin fluid, high ones a thick fluid.

(Values after US11046991B2, “Rapid preconcentration of viable bacteria using magnetic ionic liquid for PCR amplification and culture-based diagnostics” (priority 2017, dated 2021).)
